HELM strings list units from the 5' end as sugar, base in round brackets, then linkage (d deoxyribose, r ribose, m 2'-O-methyl, p phosphodiester). Strings are as the collection lists them; they lack the last nucleoside at the 3' end of the tested compound. [moe] = 2'-O-(2-methoxyethyl) (MOE); [sp] = phosphorothioate linkage; [m5C] = 5-methylcytosine
Target: PRNP
Experiment: mouse, dose not given
Details: ASO

## RNA1{[moe](G)[sp].[moe](T)p.[moe](T)p.[moe](A)p.[moe](G)[sp].d([m5C])[sp].d(T)[sp].d(T)[sp].d(T)[sp].d(T)[sp].d(T)[sp].d(T)[sp].d(T)[sp].d([m5C])[sp].d(A)[sp].[moe]([m5C])p.[moe](T)p.[moe](G)[sp].[moe](T)}$$$$ (last 3' nucleoside missing)
  3 h FOB score: 0.5 score 0-7

## RNA1{[moe](G)[sp].[moe](T)p.[moe](T)p.[moe](G)p.[moe](A)[sp].d(T)[sp].d(T)[sp].d(T)[sp].d(T)[sp].d(T)[sp].d([m5C])[sp].d([m5C])[sp].d(A)[sp].d(G)[sp].d(A)[sp].[moe](A)p.[moe](G)p.[moe](T)[sp].[moe](T)}$$$$ (last 3' nucleoside missing)
  3 h FOB score: 3.25 score 0-7

## RNA1{[moe](G)[sp].[moe](T)p.[moe](T)p.[moe](G)p.[moe](T)[sp].d(G)[sp].d(A)[sp].d([m5C])[sp].d(A)[sp].d(A)[sp].d(T)[sp].d(A)[sp].d(T)[sp].d(T)[sp].d(T)[sp].[moe](A)p.[moe]([m5C])p.[moe](T)[sp].[moe]([m5C])}$$$$ (last 3' nucleoside missing)
  3 h FOB score: 0 score 0-7

## RNA1{[moe](G)[sp].[moe](T)p.[moe](T)p.[moe](G)p.[moe](T)[sp].d(T)[sp].d(G)[sp].d(A)[sp].d(T)[sp].d(T)[sp].d(T)[sp].d(T)[sp].d(T)[sp].d([m5C])[sp].d([m5C])[sp].[moe](A)p.[moe](G)p.[moe](A)[sp].[moe](A)}$$$$ (last 3' nucleoside missing)
  3 h FOB score: 4.75 score 0-7

## RNA1{[moe](G)[sp].[moe](T)p.[moe](T)p.[moe](G)p.[moe](T)[sp].d(T)[sp].d(G)[sp].d(T)[sp].d(T)[sp].d(T)[sp].d([m5C])[sp].d(T)[sp].d(T)[sp].d(T)[sp].d(T)[sp].[moe]([m5C])p.[moe](T)p.[moe](G)[sp].[moe](G)}$$$$ (last 3' nucleoside missing)
  3 h FOB score: 6 score 0-7

## RNA1{[moe](G)[sp].[moe](T)p.[moe](T)p.[moe](T)p.[moe]([m5C])[sp].d([m5C])[sp].d([m5C])[sp].d(A)[sp].d([m5C])[sp].d(A)[sp].d(T)[sp].d(A)[sp].d(T)[sp].d(T)[sp].d(A)[sp].[moe](A)p.[moe](G)p.[moe](T)[sp].[moe](A)}$$$$ (last 3' nucleoside missing)
  3 h FOB score: 1 score 0-7

## RNA1{[moe](G)[sp].[moe](T)p.[moe](T)p.[moe]([m5C])p.[moe](A)[sp].d(G)[sp].d(A)[sp].d(G)[sp].d(A)[sp].d(A)[sp].d(T)[sp].d([m5C])[sp].d(T)[sp].d(T)[sp].d(T)[sp].[moe]([m5C])p.[moe](A)p.[moe]([m5C])[sp].[moe]([m5C])}$$$$ (last 3' nucleoside missing)
  3 h FOB score: 0 score 0-7

## RNA1{[moe](G)[sp].[moe](T)p.[moe](T)p.[moe]([m5C])p.[moe](A)[sp].d(G)[sp].d(T)[sp].d(G)[sp].d(T)[sp].d(T)[sp].d(G)[sp].d(T)[sp].d(G)[sp].d(A)[sp].d([m5C])[sp].[moe](A)p.[moe](A)p.[moe](T)[sp].[moe](A)}$$$$ (last 3' nucleoside missing)
  3 h FOB score: 6.75 score 0-7

## RNA1{[moe](G)[sp].[moe](T)p.[moe](T)p.[moe]([m5C])p.[moe](A)[sp].d([m5C])[sp].d(T)[sp].d(G)[sp].d(T)[sp].d(G)[sp].d(A)[sp].d(A)[sp].d(T)[sp].d(A)[sp].d(T)[sp].[moe](G)p.[moe](T)p.[moe]([m5C])[sp].[moe]([m5C])}$$$$ (last 3' nucleoside missing)
  3 h FOB score: 4.25 score 0-7

## RNA1{[moe](G)[sp].[moe](T)p.[moe](T)p.[moe]([m5C])p.[moe](T)[sp].d(A)[sp].d(A)[sp].d(T)[sp].d(T)[sp].d(T)[sp].d(T)[sp].d(A)[sp].d(G)[sp].d(A)[sp].d(T)[sp].[moe]([m5C])p.[moe](A)p.[moe](T)[sp].[moe](T)}$$$$ (last 3' nucleoside missing)
  3 h FOB score: 2 score 0-7
